One may read the IC50 as the point on the concentration scale where inhibition reaches its midpoint.

Sequence of RORγ receptor (P51449 269-508): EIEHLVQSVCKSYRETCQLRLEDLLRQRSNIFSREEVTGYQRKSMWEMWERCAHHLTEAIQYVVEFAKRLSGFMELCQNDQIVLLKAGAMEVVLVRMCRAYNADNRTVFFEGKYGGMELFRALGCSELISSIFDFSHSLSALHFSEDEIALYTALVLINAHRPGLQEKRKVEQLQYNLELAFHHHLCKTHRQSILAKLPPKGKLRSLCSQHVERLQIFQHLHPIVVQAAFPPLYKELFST

This assay deals with RORγ receptor (Homo sapiens, UniProt P51449). Description: RORγ Gal4 reporter assay (Gal4-luciferase, inverse agonist activity). In kind it is cell-based. Particulars: Jurkat cells stably over-expressing hRORγ; Gal4-luciferase reporter; overnight incubation; read-out: RORγ Gal4, IC50. As to the method:
General RORγ Gal4 Reporter Assay
IC50 values were determined.
(Reporter assays use an easily measured gene product as a stand-in for the process of interest.)
`O=C(Nc1ccnc2[nH]ncc12)[C@@H]1CC[C@@]2(S(=O)(=O)c3ccc(F)cc3)c3ccc(C(F)(C(F)(F)F)C(F)(F)F)cc3CC[C@@H]12` [Example 27]: the IC50 came out at 48 nM.

Consider `O=C([C@@H]1CC[C@@]2(S(=O)(=O)c3ccc(F)cc3)c3ccc(C(F)(C(F)(F)F)C(F)(F)F)cc3CC[C@@H]12)N1CCS(=O)(=O)CC1` [Example 40], for which the IC50 was found to be 14 nM.

For the compound `O=C([C@@H]1CC[C@@]2(S(=O)(=O)c3ccc(F)cc3)c3ccc(C(F)(C(F)(F)F)C(F)(F)F)cc3CC[C@@H]12)N1CC(F)(F)C(F)(F)C1` [Example 63], the IC50 worked out at 21 nM.

Consider `O=C([C@@H]1CC[C@@]2(S(=O)(=O)c3ccc(F)cc3)c3ccc(C(F)(C(F)(F)F)C(F)(F)F)cc3CC[C@@H]12)N1CC(F)(F)C[C@@H]1CO` [Example 64], for which the IC50 was determined as 37 nM.

As to `O=C([C@@H]1CC[C@@]2(S(=O)(=O)c3ccc(F)cc3)c3ccc(C(F)(C(F)(F)F)C(F)(F)F)cc3CC[C@@H]12)N1CCC(F)(F)C1` [Example 65], the IC50 turned out to be 13 nM.

Consider `NC(=O)[C@H]1CC(F)(F)CN1C(=O)[C@@H]1CC[C@@]2(S(=O)(=O)c3ccc(F)cc3)c3ccc(C(F)(C(F)(F)F)C(F)(F)F)cc3CC[C@@H]12` [Example 66], for which the IC50 was found to be 15 nM.

Turning to `CS(=O)(=O)N1CCC(NC(=O)[C@@H]2CC[C@@]3(S(=O)(=O)c4ccc(F)cc4)c4ccc(C(F)(C(F)(F)F)C(F)(F)F)cc4CC[C@@H]23)CC1` [Example 77], the half-maximal inhibitory concentration (IC50) worked out at 4 nM.

Turning to `O=C([C@@H]1CC[C@@]2(S(=O)(=O)c3ccc(F)cc3)c3ccc(C(F)(C(F)(F)F)C(F)(F)F)cc3CC[C@@H]12)N1CCC2(CCNC2=O)CC1` [Example 82], the IC50 amounted to 18 nM.

In the case of `O=C1CC2(CCN(C(=O)[C@@H]3CC[C@@]4(S(=O)(=O)c5ccc(F)cc5)c5ccc(C(F)(C(F)(F)F)C(F)(F)F)cc5CC[C@@H]34)CC2)CN1` [Example 83], the IC50 stood at 9 nM.

With `O=C1CC2(CCN(C(=O)[C@@H]3CC[C@@]4(S(=O)(=O)c5ccc(F)cc5)c5ccc(C(F)(C(F)(F)F)C(F)(F)F)cc5CC[C@@H]34)CC2)N1` [Example 84], the IC50 was 5 nM.

On to `O=C([C@@H]1CC[C@@]2(S(=O)(=O)c3ccc(F)cc3)c3ccc(C(F)(C(F)(F)F)C(F)(F)F)cc3CC[C@@H]12)N1CCC2(CC1)CNC2=O` [Example 85], for which the half-inhibitory concentration (IC50) amounted to 14 nM.

`O=C(O)C1CCN(C(=O)[C@@H]2CC[C@@]3(S(=O)(=O)c4ccc(F)cc4)c4ccc(C(F)(C(F)(F)F)C(F)(F)F)cc4CC[C@@H]23)C1` (stereo partly drawn) [Example 91]: the IC50 turned out to be 40 nM.

`O=C(O)C1CCN(C(=O)[C@@H]2CC[C@@]3(S(=O)(=O)c4ccc(F)cc4)c4ccc(C(F)(C(F)(F)F)C(F)(F)F)cc4CC[C@@H]23)C1` (stereo partly drawn) [Example 92]: the IC50 amounted to 41 nM.

In the case of `O=C(O)C1CCCC(NC(=O)[C@@H]2CC[C@@]3(S(=O)(=O)c4ccc(F)cc4)c4ccc(C(F)(C(F)(F)F)C(F)(F)F)cc4CC[C@@H]23)C1` (stereo partly drawn) [Example 98], the half-maximal inhibitory concentration (IC50) is 22 nM.

Regarding `O=C(O)C1CCCC(NC(=O)[C@@H]2CC[C@@]3(S(=O)(=O)c4ccc(F)cc4)c4ccc(C(F)(C(F)(F)F)C(F)(F)F)cc4CC[C@@H]23)C1` (stereo partly drawn) [Example 99], the IC50 came to 14 nM.

`O=C(O)C1CCCC(NC(=O)[C@@H]2CC[C@@]3(S(=O)(=O)c4ccc(F)cc4)c4ccc(C(F)(C(F)(F)F)C(F)(F)F)cc4CC[C@@H]23)C1` (stereo partly drawn) [Example 100]: the half-inhibitory concentration (IC50) came to 53 nM.

Regarding `O=C(N[C@H]1CC[C@H](C(=O)O)CC1)[C@@H]1CC[C@@]2(S(=O)(=O)c3ccc(F)cc3)c3ccc(C(F)(C(F)(F)F)C(F)(F)F)cc3CC[C@@H]12` [Example 102], the IC50 came out at 33 nM.

For the compound `O=C(NC12CCC(C(=O)O)(CC1)CC2)[C@@H]1CC[C@@]2(S(=O)(=O)c3ccc(F)cc3)c3ccc(C(F)(C(F)(F)F)C(F)(F)F)cc3CC[C@@H]12` [Example 103], the 50% inhibitory concentration (IC50) stood at 31 nM.

Consider `C[C@H]1CN(C(=O)[C@@H]2CC[C@@]3(S(=O)(=O)c4ccc(F)cc4)c4ccc(C(F)(C(F)(F)F)C(F)(F)F)cc4CC[C@@H]23)CC[C@@H]1C(=O)O` [Example 105], for which the IC50 was found to be 42 nM.

With `O=C(N[C@@H]1CC[C@@]2(S(=O)(=O)c3ccc(F)cc3)c3ccc(C(F)(C(F)(F)F)C(F)(F)F)cc3CC[C@@H]12)C1(O)CCS(=O)(=O)CC1` [Example 123, N-((3R,3aS,9bS)-9b-((4-fluorophenyl)sulfonyl)-7-(perfluoropropan-2-yl)-2,3,3a,4,5,9b-hexahydro-1H-cyclopenta[a]naphthalen-3-yl)-4-hydroxytetrahydro-2H-thiopyran-4-carboxamide 1,1-dioxide], the IC50 amounted to 2 nM.

Turning to `CS(=O)(=O)N1CCC(O)(C(=O)N[C@@H]2CC[C@@]3(S(=O)(=O)c4ccc(F)cc4)c4ccc(C(F)(C(F)(F)F)C(F)(F)F)cc4CC[C@@H]23)CC1` [Example 124], the concentration for half-maximal inhibition (IC50) came to 7 nM.

As to `O=C(O)[C@H]1CC[C@H](C(=O)N[C@@H]2CC[C@@]3(S(=O)(=O)c4ccc(F)cc4)c4ccc(C(F)(C(F)(F)F)C(F)(F)F)cc4CC[C@@H]23)CC1` [Example 139], the IC50 is 24 nM.

Take `O=C(O)C1CC2(C1)CC(C(=O)N[C@@H]1CC[C@@]3(S(=O)(=O)c4ccc(F)cc4)c4ccc(C(F)(C(F)(F)F)C(F)(F)F)cc4CC[C@@H]13)C2` (stereo partly drawn) [Example 141]: the 50% inhibitory concentration (IC50) worked out at 7 nM.

Consider `O=C(N[C@@H]1CC[C@@]2(S(=O)(=O)c3ccc(F)cc3)c3ccc(C(F)(C(F)(F)F)C(F)(F)F)cc3CC[C@@H]12)C1(O)CCS(=O)(=O)CC1` [Example 144], for which the IC50 came to 40 nM.

For the compound `Cc1ncn(C)c1C(=O)N[C@@H]1CC[C@@]2(S(=O)(=O)c3ccc(F)cc3)c3ccc(C(F)(C(F)(F)F)C(F)(F)F)cc3CC[C@@H]12` [Example 146], the half-maximal inhibitory concentration (IC50) amounted to 13 nM.

With `Cc1nnsc1C(=O)N[C@@H]1CC[C@@]2(S(=O)(=O)c3ccc(F)cc3)c3ccc(C(F)(C(F)(F)F)C(F)(F)F)cc3CC[C@@H]12` [Example 147], the 50% inhibitory concentration (IC50) amounted to 9 nM.

On to `O=C(N[C@@H]1CC[C@@]2(S(=O)(=O)c3ccc(F)cc3)c3ccc(C(F)(C(F)(F)F)C(F)(F)F)cc3CC[C@@H]12)C1CCS(=O)(=O)CC1` [Example 149, N-((3R,3aS,9bS)-9b-((4-fluorophenyl)sulfonyl)-7-(perfluoropropan-2-yl)-2,3,3a,4,5,9b-hexahydro-1H-cyclopenta[a]naphthalen-3-yl)tetrahydro-2H-thiopyran-4-carboxamide 1,1-dioxide], for which the IC50 was found to be 9 nM.

For the compound `O=C(N[C@@H]1CC[C@@]2(S(=O)(=O)c3ccc(F)cc3)c3ccc(C(F)(C(F)(F)F)C(F)(F)F)cc3CC[C@@H]12)[C@H](O)C(F)(F)F` [Example 157], the IC50 came to 13 nM.

For the compound `O=C(N[C@@H]1CC[C@@]2(S(=O)(=O)c3ccc(F)cc3)c3ccc(C(F)(C(F)(F)F)C(F)(F)F)cc3CC[C@@H]12)[C@@H](O)Cc1c[nH]cn1` [Example 158], the IC50 is 14 nM.

On to `NC(=O)c1c(F)cc(C(=O)N[C@@H]2CC[C@@]3(S(=O)(=O)c4ccc(F)cc4)c4ccc(C(F)(C(F)(F)F)C(F)(F)F)cc4CC[C@@H]23)cc1F` [Example 159], for which the half-inhibitory concentration (IC50) came to 3 nM.

As for `O=C(N[C@@H]1CC[C@@]2(S(=O)(=O)c3ccc(F)cc3)c3ccc(C(F)(C(F)(F)F)C(F)(F)F)cc3CC[C@@H]12)c1cccnc1O` [Example 161], the IC50 came out at 16 nM.

Turning to `O=C(O)c1ccc(C(=O)N[C@@H]2CC[C@@]3(S(=O)(=O)c4ccc(F)cc4)c4ccc(C(F)(C(F)(F)F)C(F)(F)F)cc4CC[C@@H]23)cc1` [Example 162], the IC50 was 22 nM.

With `CS(=O)(=O)N1CC(O)(C(=O)N[C@@H]2CC[C@@]3(S(=O)(=O)c4ccc(F)cc4)c4ccc(C(F)(C(F)(F)F)C(F)(F)F)cc4CC[C@@H]23)C1` [Example 168], the concentration for half-maximal inhibition (IC50) was 28 nM.

With `O=C(N[C@@H]1CC[C@@]2(S(=O)(=O)c3ccc(F)cc3)c3ccc(C(F)(C(F)(F)F)C(F)(F)F)cc3CC[C@@H]12)c1ccc(=O)[nH]c1` [Example 188], the concentration for half-maximal inhibition (IC50) amounted to 9 nM.

`Cn1cc(C(=O)N[C@@H]2CC[C@@]3(S(=O)(=O)c4ccc(F)cc4)c4ccc(C(F)(C(F)(F)F)C(F)(F)F)cc4CC[C@@H]23)ccc1=O` [Example 189]: the half-inhibitory concentration (IC50) was determined as 9 nM.

In the case of `O=C(O)[C@H]1CC[C@](O)(C(=O)N[C@@H]2CC[C@@]3(S(=O)(=O)c4ccc(F)cc4)c4ccc(C(F)(C(F)(F)F)C(F)(F)F)cc4CC[C@@H]23)CC1` [Example 191, (1s,4s)-4-(((3R,3aS,9bS)-9b-((4-fluorophenyl)sulfonyl)-7-(perfluoropropan-2-yl)-2,3,3a,4,5,9b-hexahydro-1H-cyclopenta[a]naphthalen-3-yl)carbamoyl)-4-hydroxycyclohexane-1-carboxylic acid], the IC50 was 54 nM.

`O=C(O)[C@H]1CC[C@](F)(C(=O)N[C@@H]2CC[C@@]3(S(=O)(=O)c4ccc(F)cc4)c4ccc(C(F)(C(F)(F)F)C(F)(F)F)cc4CC[C@@H]23)CC1` [Example 192]: the IC50 was 24 nM.

With `O=C(O)C12C3C4C1C1C2C3C41C(=O)N[C@@H]1CC[C@@]2(S(=O)(=O)c3ccc(F)cc3)c3ccc(C(F)(C(F)(F)F)C(F)(F)F)cc3CC[C@@H]12` (stereo partly drawn) [Example 193], the IC50 was 97 nM.

Consider `C[C@H]1C[C@H](C(=O)O)CC[C@H]1C(=O)N[C@@H]1CC[C@@]2(S(=O)(=O)c3ccc(F)cc3)c3ccc(C(F)(C(F)(F)F)C(F)(F)F)cc3CC[C@@H]12` [Example 194], for which the half-inhibitory concentration (IC50) was determined as 32 nM.

Regarding `CC(C)(N)C(=O)N[C@@H]1CC[C@@]2(S(=O)(=O)c3ccc(F)cc3)c3ccc(C(F)(C(F)(F)F)C(F)(F)F)cc3CC[C@@H]12` [Example 197], the IC50 is 30 nM.

For the compound `CC(C)(N)[C@H](N)C(=O)N[C@@H]1CC[C@@]2(S(=O)(=O)c3ccc(F)cc3)c3ccc(C(F)(C(F)(F)F)C(F)(F)F)cc3CC[C@@H]12` [Example 198], the IC50 worked out at 17 nM.

As for `CC(C)(C(=O)N[C@@H]1CC[C@@]2(S(=O)(=O)c3ccc(F)cc3)c3ccc(C(F)(C(F)(F)F)C(F)(F)F)cc3CC[C@@H]12)N1CCNCC1` [Example 200], the concentration for half-maximal inhibition (IC50) amounted to 63 nM.

(Values after patent US10435369B2, “Tricyclic sulfones as ROR gamma modulators” (BRISTOL-MYERS SQUIBB COMPANY, priority 2016, dated 2019).)
